Read-outs that look alike come from different tables or passages of the source.

The subject of one data set is NUGC-3 cells. Briefly: NUGC-3 cell proliferation assay (CTG, 7 days). In kind it is cell-based, human. The settings on record: Homo sapiens, NUGC-3, 168 h. The gist of the method:
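Cells (200/well) in 1640 medium with 10% serum exposed to 10-point, 3-fold DMSO dilutions (duplicates) for 7 days at 37°C. Viability read by CellTiter-Glo luminescence; % inhibition normalized to DMSO and blank, IC50 from variable-slope nonlinear fit.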

Another data set addresses T1, PXR (Homo sapiens, UniProt O75469).
T1 construct: expressed in transfected cells; host or cells: DPX2 cells
T1 sequence (O75469 1-434): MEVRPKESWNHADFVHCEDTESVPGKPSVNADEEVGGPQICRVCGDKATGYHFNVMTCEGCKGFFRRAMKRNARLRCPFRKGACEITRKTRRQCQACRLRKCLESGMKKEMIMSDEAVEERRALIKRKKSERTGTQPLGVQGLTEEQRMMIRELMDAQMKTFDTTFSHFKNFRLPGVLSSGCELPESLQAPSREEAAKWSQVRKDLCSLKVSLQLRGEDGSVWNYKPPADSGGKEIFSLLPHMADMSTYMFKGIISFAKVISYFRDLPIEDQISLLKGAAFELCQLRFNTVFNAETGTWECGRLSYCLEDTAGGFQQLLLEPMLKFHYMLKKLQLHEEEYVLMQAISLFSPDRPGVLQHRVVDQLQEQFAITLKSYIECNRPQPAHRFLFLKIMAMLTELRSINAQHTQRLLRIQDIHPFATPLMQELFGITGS
Briefly: PXR activity test in DPX2 cells (luciferase). The class given is cell-based. The settings on record: for Activation fold: DPX2 cells, 24 h; for Percentage relative to positive control: positive control rifampicin. The method, then: The cells were digested when they covered 80-90% of the bottom of the flask. • 3) The surface of the T-75 cultured cells was washed with 10 mL of PBS, PBS was removed by pipetting, 3-5 mL of trypsin was added, the cells were digested at 37°C for 5 min or until the cells were completely digested and in a suspended state, and excessive culture medium containing fetal bovine serum was added to terminate trypsin digestion. • 4) The cell suspension was transferred to a conical-bottom centrifuge tube and centrifuged at 150 g for 5 min at room temperature. The supernatant was carefully removed by pipetting and the cells were re-suspended in treatment medium to have a concentration of 3.2×10^5 cells/mL (incubation time 24 h, plate seeding density […]). In a 384-well cell culture plate, 25 μL of cell suspension was added to each well. The cell plate was placed in an incubator at 95% humidity, 37°C, and 5% CO2 for 24 h. […] The cell plates were placed in an incubator and further incubated for 24 h. • 3) Before starting experiments with the substrate, cell morphology and monolayer integrity were checked to ensure the monolayer is of acceptable quality for studies. […] GF-AFC substrate (10 μL) was added to Assay Buffer (10 ml) to form 2X reagent, which was then diluted into 1X reagent with 10 mL of PBS. ONE-Glo Luciferase substrate was added to ONE-Glo Luciferase Assay Buffer. • 3) The culture plate was taken out of the incubator, the culture medium was discarded, 1X CellTiter-Fluor^TM reagent was poured into the sample loading slot, 25 μL of reagent was added to each well of the culture plate using a pipetting workstation, and then the plate was placed in the incubator for incubation for 30 min. • 4) The cell culture plate was taken out from the incubator, cooled slightly to room temperature, and the fluorescence value was measured by automatic quantitative microplate reader. […] The activation fold of mRNA is calculated using the following formula: Fold activation = (RLUtest/RFUtest)/(RLUvehicle/RFUvehicle) [formula] 2) The percentage of cell viability of the compound is calculated as follows: Cell Viability % = (RFUtest/RFUvehicle) × 100 [formula] 3) The percentage relative to the positive control is calculated according to the following formula: Percent of positive control(%) = (Foldactivationtest/[…]:?}

Setting [1] is: NUGC-3 cell proliferation, 7 days, CTG, read-out: IC50.
Where [2] appears, read: Concentration 1 (µM per method).
The mark [3] stands for this setting: Concentration 10 (µM per method).

Regarding `CNC(=O)c1ccc(NCC#Cc2cc3c(N[C@@H]4CCN(C)C[C@@H]4F)cccc3n2CC(F)(F)F)c(OC)c1` [Control compound, reference compound], the half-maximal inhibitory concentration (IC50) with NUGC-3 cells (setting [1]) was 384 nM. Also, on PXR (setting [2]), the Activation fold is on record as 1.40 and the “Percentage relative to positive control” value came to 8.61%. Also, at PXR (setting [3]), the Activation fold is on record as 8.58 and the “Percentage relative to positive control” value is on record as 52.82%.
The like results for `CN1CC[C@@H](Nc2cccc3c(CC(F)(F)F)c(C#CCNC(=O)c4cnn(C(C)(C)C)c4)nn23)[C@@H](F)C1` [Compound 001, 1-tert-butyl-N-[3-(7-{[(3S,4R)-3-fluoro-1-methylpiperidin-4-yl]amino}-3-(2,2,2-trifluoroethyl)pyrazolo[1,5-a]pyridin-2-yl)prop-2-yn-1-yl]-1H-pyrazole-4-carboxamide] were, in that order, 387 nM, 1.41, 8.07%, 3.05 and 17.50%.
`CN1CC[C@@H](Nc2cccc3c(CC(F)(F)F)c(C#CCNC(=O)c4cnn(C(C)(C)C)c4N)nn23)[C@@H](F)C1` [Compound 047] came in with a half-inhibitory concentration (IC50) in the data set on NUGC-3 cells of 129 nM. Moreover, on PXR (setting [2]), the Activation fold is 1.12 and the “Percentage relative to positive control” value amounted to 5.67%. On PXR (setting [3]), the Activation fold amounted to 2.66 and the “Percentage relative to positive control” value was 13.47%.
Taken in the same sequence, the figures for `CCn1ncc(C(=O)NCC#Cc2nn3c(N[C@@H]4CCN(C)C[C@@H]4F)cccc3c2CC(F)(F)F)c1N` [Compound 261, 5-amino-1-ethyl-N-[3-(7-{[(3S,4R)-3-fluoro-1-methylpiperidin-4-yl]amino}-3-(2,2,2-trifluoroethyl)pyrazolo[1,5-a]pyridin-2-yl)prop-2-yn-1-yl]-1H-pyrazole-4-carboxamide] were 172 nM, 0.89, 4.48%, 1.43 and 7.20%.

The term IC50 denotes the midpoint of a concentration-inhibition curve.
